Reference: patent US20220081433A1, “CYCLIC SULFAMIDE COMPOUNDS FOR TREATMENT OF HBV” (Assembly Biosciences, Inc., priority 2018, published 2022)

Tested on: HBV
Assay: Activity of test compounds on viral production from HepAD38 cells (viral load by qPCR of HBV core sequence)
Assay type: cell-based
Conditions: Hepatitis B virus, 120 h, 5 days, supernatant HBV DNA by qPCR vs DMSO control, read-out: viral load lowering EC50 (Activity)
Experimental: Assay Measuring Activity of Test Compounds on Viral Production from HepAD38 Cells
HepAD38 cells grown in a T-150 flask (Corning, cat#: 430825) with Growth Medium (DMEM/F12 (1:1) (Hyclone, cat#: SH30023.02), 1× Pen/Strep (Invitrogen, cat#: 15140-122), 10% FBS (Tissue Culture Biologics, cat#: 101), 250 μg/mL G418 (Alfa Aesar, cat#: J62671), 1 μg/mL Tetracycline (Teknova, cat#: T3320)) were detached with 0.25% trypsin-EDTA (Invitrogen, cat#: 25200-056). Tetracycline-free treatment medium (15 mL DMEM/F12 (1:1) 1×Pen/step, with 2% FBS, Tet-system approved (Clontech, cat#: 631106) were then added to mix, transferred into a 50 ml conical tube (Falcon, cat#: 21008-918) and spun at 1300 rpm for 5 min. Pelleted cells were then re-suspended/washed with 50 mL of 1×DPBS (Invitrogen, cat#: 14190-136) 2 times and 50 mL treatment medium twice. HepAD38 cells were then re-suspended with 10 mL of treatment medium, syringed and counted. Wells of 96-well clear bottom TC plate (Corning, cat#: 3904) were seeded at 50,000 cells/well in 180 μL of treatment medium, and 20 μL of either 10% DMSO (Sigma, cat#: D4540) as controls or a 10× solution of test compounds in 10% DMSO in treatment media was added for a final compound concentration starting at 10 μM, and plates were incubated in 5% CO2 incubator at 37° C. for 5 days.
Subsequently viral load production was assayed by quantitative PCR (qPCR) of the HBV core sequence. PCR reaction mixture containing forward primers HBV-f 5′-CTGTGCCTTGGGTGGCTTT-3′ (IDT DNA), Reverse primers HBV-r 5′-[…]-3′ (IDT DNA), Fluorescent TaqMan™ Probes HBV-probe 5′-FAM/AGCTCCAAA/ZEN/[…]/3IABkFQ-3′ (IDT DNA), 10 μL/well of PerfeCTa® qPCR ToughMix® (Quanta Biosciences, Cat#: 95114-05K), and 6 μL/well of DEPC water (Alfa Aesar, cat#: J62087) was prepared. Four μL of supernatant was added to 16 μL of the reaction mixture in a qPCR plate (Applied Biosytems, Cat#: 4309849), sealed with a film (Applied Biosystems, Cat#: 4311971), centrifuged for a few seconds, and subsequently run on an Applied Biosystems VIIA7. The PCR mixture was incubated at 45° C. for 5 min, then 95° C. for 10 min, followed by 40 cycles of 10 seconds at 95° C. and 20 seconds at 60° C. Viral load was quantified against known HBV DNA standards by using ViiA™ 7 Software. Viral load in the supernatant from wells with treated cells were compared against viral load in supernatant from DMSO control wells (≥ 3 per plate). Cell viability assay was performed with CellTiter-Glo Luminescent Cell Viability Assay (Promega, cat#: G7573) with modification. Mixed appropriate amount of CellTiter-Glo (CTG) 1×DPBS in a 1:1 ratio, added 100 uL of the mixture to each well followed completely removal of all supernatant in each well without touching cell surface. Incubated the plate at room temperature for 10 min on an orbital shaker, and then read the plate with a plate reader (TECAN M1000 or Envision). EC50 or CC50 values were calculated through curve-fitting of the four-parameter nonlinear-logistic-regression model (GraphPad Prism or Dotmatics). CC50 values were all >10 μM.

With `Cc1cc(-c2cccc(C3CC(C(=O)Nc4ccc(F)c(Cl)c4)N(C)S(=O)(=O)N3)c2)ccc1F` (centres unmarked) [Example 10, N-(3-Chloro-4-fluorophenyl)-5-(4′-fluoro-3′-methyl-[1,1′-biphenyl]-3-yl)-2-methyl-1,2,6-thiadiazinane-3-carboxamide 1,1-dioxide] as the compound, how does the EC50 read?
Its EC50 is < 1 µM.

For `CN1C(C(=O)Nc2ccc(F)c(Cl)c2)CC(c2cccc(C3=CCOCC3)c2)NS1(=O)=O` (centres unmarked) [Example 11, N-(3-Chloro-4-fluorophenyl)-5-(3-(3,6-dihydro-2H-pyran-4-yl)phenyl)-2-methyl-1,2,6-thiadiazinane-3-carboxamide 1,1-dioxide], which EC50 is on record?
The EC50 was < 1 µM.

For `COC(=O)c1cccc(-c2cccc(C3CC(C(=O)Nc4ccc(F)c(Cl)c4)N(C)S(=O)(=O)N3)c2)c1` (centres unmarked) [Example 12, Methyl 3′-(5-((3-Chloro-4-fluorophenyl)carbamoyl)-6-methyl-1,1-dioxido-1,2,6-thiadiazinan-3-yl)-[1,1′-biphenyl]-3-carboxylate], which EC50 is on record?
Its EC50 is < 1 µM.

`CN1C(C(=O)Nc2ccc(F)c(Cl)c2)CC(c2cccc(C3CC3)c2)NS1(=O)=O` (centres unmarked) [Example 13, N-(3-Chloro-4-fluorophenyl)-5-(3-cyclopropylphenyl)-2-methyl-1,2,6-thiadiazinane-3-carboxamide 1,1-dioxide] was tested. Which EC50 did it give?
Its EC50 is < 1 µM.

Which EC50 does the source give for `COc1ccc(-c2cccc(C3CC(C(=O)Nc4ccc(F)c(Cl)c4)N(C)S(=O)(=O)N3)c2)cc1C(F)(F)F` (centres unmarked) [Example 14, N-(3-Chloro-4-fluorophenyl)-5-(4′-methoxy-3′-(trifluoromethyl)-[1,1′-biphenyl]-3-yl)-2-methyl-1,2,6-thiadiazinane-3-carboxamide 1,1-dioxide] here?
Its EC50 is 1 to 5 µM.

`COC(=O)Cc1ccc(-c2cccc(C3CC(C(=O)Nc4ccc(F)c(Cl)c4)N(C)S(=O)(=O)N3)c2)cc1` (centres unmarked) [Example 15, Methyl 2-(3′-(5-((3-chloro-4-fluorophenyl)carbamoyl)-6-methyl-1,1-dioxido-1,2,6-thiadiazinan-3-yl)-[1,1′-biphenyl]-4-yl)acetate] was tested. Which EC50 did it give?
Its EC50 is < 1 µM.

For `Cc1nn(C)cc1-c1cccc(C2CC(C(=O)Nc3ccc(F)c(Cl)c3)N(C)S(=O)(=O)N2)c1` (centres unmarked) [Example 16, N-(3-Chloro-4-fluorophenyl)-5-(3-(1,3-dimethyl-1H-pyrazol-4-yl)phenyl)-2-methyl-1,2,6-thiadiazinane-3-carboxamide 1,1-dioxide], which EC50 is on record?
Its EC50 is < 1 µM.

With `CN1C(C(=O)Nc2ccc(F)c(Cl)c2)CC(c2cccc(-c3cnn(CC(=O)O)c3)c2)NS1(=O)=O` (centres unmarked) [Example 17, 2-(4-(3-(5-((3-Chloro-4-fluorophenyl)carbamoyl)-6-methyl-1,1-dioxido-1,2,6-thiadiazinan-3-yl)phenyl)-1H-pyrazol-1-yl)acetic acid] as the compound, how does the EC50 read?
The EC50 was 5 to 10 µM.

With `CN1CC=C(c2cccc(C3CC(C(=O)Nc4ccc(F)c(Cl)c4)N(C)S(=O)(=O)N3)c2)CC1` (centres unmarked) [Example 18, N-(3-Chloro-4-fluorophenyl)-2-methyl-5-(3-(1-methyl-1,2,3,6-tetrahydropyridin-4-yl)phenyl)-1,2,6-thiadiazinane-3-carboxamide 1,1-dioxide] as the compound, how does the EC50 read?
The EC50 was < 1 µM.

With `CN1C(C(=O)Nc2ccc(F)c(Cl)c2)CC(c2cccc(-c3cccc(C(=O)O)c3)c2)NS1(=O)=O` (centres unmarked) [Example 19, 3′-(5-((3-Chloro-4-fluorophenyl)carbamoyl)-6-methyl-1,1-dioxido-1,2,6-thiadiazinan-3-yl)-[1,1′-biphenyl]-3-carboxylic acid] as the compound, how does the EC50 read?
Its EC50 is 1 to 5 µM.

For `CN1C(C(=O)Nc2ccc(F)c(Cl)c2)CC(c2cccc(-c3cncn3C)c2)NS1(=O)=O` (centres unmarked) [Example 20, N-(3-Chloro-4-fluorophenyl)-2-methyl-5-(3-(1-methyl-1H-imidazol-5-yl)phenyl)-1,2,6-thiadiazinane-3-carboxamide 1,1-dioxide], which EC50 is on record?
The EC50 was < 1 µM.

`CN1C(C(=O)Nc2ccc(F)c(Cl)c2)CC(c2cccc(-c3ccc(C(F)(F)F)cc3)c2)NS1(=O)=O` (centres unmarked) [Example 21, N-(3-Chloro-4-fluorophenyl)-2-methyl-5-(4′-(trifluoromethyl)-[1,1′-biphenyl]-3-yl)-1,2,6-thiadiazinane-3-carboxamide 1,1-dioxide] was tested. Which EC50 did it give?
Its EC50 is < 1 µM.

How did the EC50 turn out when `CN1C(C(=O)Nc2ccc(F)c(Cl)c2)CC(c2cccc(-c3ccccn3)c2)NS1(=O)=O` (centres unmarked) [Example 22, N-(3-Chloro-4-fluorophenyl)-2-methyl-5-(3-(pyridin-2-yl)phenyl)-1,2,6-thiadiazinane-3-carboxamide 1,1-dioxide] was run?
The EC50 was < 1 µM.

For `CN1C(C(=O)Nc2ccc(F)c(Cl)c2)CC(c2cccc(N3CCCCC3)c2)NS1(=O)=O` (centres unmarked) [Example 23, N-(3-Chloro-4-fluorophenyl)-2-methyl-5-(3-(piperidin-1-yl)phenyl)-1,2,6-thiadiazinane-3-carboxamide 1,1-dioxide], which EC50 is on record?
The EC50 was < 1 µM.

How did the EC50 turn out when `CN1C(C(=O)Nc2ccc(F)c(Cl)c2)CC(c2cccc(N3CCOCC3)c2)NS1(=O)=O` (centres unmarked) [Example 24, N-(3-Chloro-4-fluorophenyl)-2-methyl-5-(3-morpholinophenyl)-1,2,6-thiadiazinane-3-carboxamide 1,1-dioxide] was run?
The EC50 was < 1 µM.

Which EC50 does the source give for `CN1C(C(=O)Nc2ccc(F)c(Cl)c2)CC(c2cccc(-n3cccn3)c2)NS1(=O)=O` (centres unmarked) [Example 26, 5-(3-(1H-Pyrazol-1-yl)phenyl)-N-(3-chloro-4-fluorophenyl)-2-methyl-1,2,6-thiadiazinane-3-carboxamide 1,1-dioxide] here?
Its EC50 is < 1 µM.

`Cc1nnc(C2CC(C(=O)Nc3ccc(F)c(Cl)c3)N(C)S(=O)(=O)N2)o1` (centres unmarked) [Example 29, N-(3-Chloro-4-fluorophenyl)-2-methyl-5-(5-methyl-1,3,4-oxadiazol-2-yl)-1,2,6-thiadiazinane-3-carboxamide 1,1-dioxide] was tested. Which EC50 did it give?
Its EC50 is 1 to 5 µM.

With `Cc1nnc(C2CC(C(=O)Nc3ccc(F)c(Cl)c3)N(C)S(=O)(=O)N2)n1C` (centres unmarked) [Example 32, N-(3-Chloro-4-fluorophenyl)-5-(4,5-dimethyl-4H-1,2,4-triazol-3-yl)-2-methyl-1,2,6-thiadiazinane-3-carboxamide 1,1-dioxide] as the compound, how does the EC50 read?
The EC50 was 5 to 10 µM.

For `CN1C(C(=O)Nc2ccc(F)c(Cl)c2)CC(c2nnc(Cc3ccccc3)n2C)NS1(=O)=O` (centres unmarked) [Example 33, 5-(5-Benzyl-4-methyl-4H-1,2,4-triazol-3-yl)-N-(3-chloro-4-fluorophenyl)-2-methyl-1,2,6-thiadiazinane-3-carboxamide 1,1-dioxide], which EC50 is on record?
Its EC50 is 5 to 10 µM.

How did the EC50 turn out when `CN1C(C(=O)Nc2ccc(F)c(Cl)c2)CC(c2ncc(-c3ccccc3)n2C)NS1(=O)=O` (centres unmarked) [Example 34, N-(3-Chloro-4-fluorophenyl)-2-methyl-5-(1-methyl-5-phenyl-1H-imidazol-2-yl)-1,2,6-thiadiazinane-3-carboxamide 1,1-dioxide] was run?
The EC50 was 5 to 10 µM.

Which EC50 does the source give for `CN1C(C(=O)Nc2ccc(F)c(Cl)c2)CC(c2ccc(-c3cn(C)cn3)o2)NS1(=O)=O` (centres unmarked) [Example 36, N-(3-Chloro-4-fluorophenyl)-2-methyl-5-(5-(1-methyl-1H-imidazol-4-yl)furan-2-yl)-1,2,6-thiadiazinane-3-carboxamide 1,1-dioxide] here?
The EC50 was < 1 µM.

`CN1C(C(=O)Nc2ccc(F)c(Cl)c2)CC(c2n[nH]c(=O)n2-c2ccccc2)NS1(=O)=O` (centres unmarked) [Example 37, N-(3-Chloro-4-fluorophenyl)-2-methyl-5-(5-oxo-4-phenyl-4,5-dihydro-1H-1,2,4-triazol-3-yl)-1,2,6-thiadiazinane-3-carboxamide 1,1-dioxide] was tested. Which EC50 did it give?
The EC50 was 1 to 5 µM.

Which EC50 does the source give for `CN1C(C(=O)Nc2ccc(F)c(Cl)c2)CC(c2n[nH]c(=O)n2Cc2ccccc2)NS1(=O)=O` (centres unmarked) [Example 38, 5-(4-Benzyl-5-oxo-4,5-dihydro-1H-1,2,4-triazol-3-yl)-N-(3-chloro-4-fluorophenyl)-2-methyl-1,2,6-thiadiazinane-3-carboxamide 1,1-dioxide] here?
Its EC50 is 5 to 10 µM.
